Article PMC5760734, “Development of an oral once-weekly drug delivery system for HIV antiretroviral therapy” (Nature Communications, 2018)
Read-outs that look alike come from different tables or passages of the source.

Columns and labels:
[1] = Drug release from polymer matrices in SGF; type: physicochemical; settings: for drug released: n = 3
Description: Drug loaded polymer matrices were synthesized by melt mixing. Appropriate amounts of drug and polymer were weighed and mixed in a 20 mL glass vial. The vial was then placed in a convection oven at 130 °C to melt the polymer. The mixture was then transferred to a negative mould heated to the same temperature. Once the mould was filled with the melted mixture, it was removed from the oven and cooled at room temperature.
Drug release studies were performed in SGF supplemented with 5%w/w Tween® 20. The drug–polymer matrices were placed in 50 mL release media at 37 °C in an incubator shaker at 150 r.p.m. At various times, about 1 mL of the media was collected and stored at −20 °C until further analysis. The rest of the media was discarded and the drug–polymer matrix was placed in fresh media. Drug concentrations in the aliquots were measured using HPLC as described previously.

[2] = test system: drug-resistant HIV strains; settings: cited from earlier work
[3] = Drug stability in simulated gastric fluid (SGF), HPLC; settings: SGF pH ~1.2, 37 °C, 24 h, salt forms
Description: To determine drug stability at low pH, the drugs were dissolved in methanol to form a concentrated stock solution. Methanol solutions were then diluted 20-fold in simulated gastric fluid, USP without pepsin (pH ~1.2; henceforth referred to as SGF). Drug solutions were then placed in a shaker incubator (New Brunswick™ Innova® 44, Eppendorf, USA) at 37 °C and 150 r.p.m. At various times, aliquots were withdrawn and stored at −20 °C until analysis. Drug concentrations in the solution were analysed using HPLC and reported as percent of the initial concentrations.
The output signal was monitored and processed using ChemStation® software (Agilent Technologies Inc., USA). Chromatographic separation was carried out on a 50 mm × 4.6 mm EC-C18 Agilent Poroshell 120 analytical column with 2.7 µm spherical particles.
The injection volume was 5 µL, and the UV detection wavelength of 260 nm was selected.
For RPV, the stationary phase was maintained at 40 °C. The mobile phase consisted of methanol: water (pH 3.5 adjusted with 0.1% formic acid) (43:57 v/v) at a flow rate of 0.9 mL/min over a 10 min run time. The injection volume was 20 µL, and the UV detector was set at 290 nm.
For CAB, the column was maintained at 45 °C and the optimized mobile phase consisted of acetonitrile: water (pH 3.5 adjusted with 0.1% formic acid) (30:70 v/v) at flow rate of 0.8 mL/min over an 8 min run time. For analysis, 5 µL of the sample was injected on to the column, and the samples were analysed at a wavelength of 260 nm.
For tenofovir alafenamide, the column was maintained at 22 °C. The mobile phase consisted initially of acetonitrile: water (pH 3.5 adjusted with 0.1% formic acid) (100:0 v/v). […] The flow rate was 0.6 mL/min and the run time was 8 min. The injection volume was 10 µL, and the UV detection wavelength of 260 nm was selected.

**Q.** Which drug released ([1]; PCL matrix, over a week) does the source give for `C[C@@H]1CCO[C@H]2Cn3cc(C(=O)NCc4ccc(F)cc4F)c(=O)c(O)c3C(=O)N12` [DTG, dolutegravir] here?
**A.** The drug released was 5%.

**Q.** What about the “total drug release from poly(anhydrides) relative to PCL” value ([1]; poly(anhydride) matrices vs PCL) of the same compound?
**A.** The value was 4–8 fold.

**Q.** What about the drug released ([1]; poly(ethylene glycol) matrix, within the first 6 h) of the same compound?
**A.** The drug released was 60–70%.

**Q.** And the “Fold change in IC50 (ρ)” value ([2]; mutation E138K/Q148K)?
**A.** The value was 19.00.

**Q.** What about the “Fold change in IC50 (ρ)” value ([2]; mutation E138K) of the same compound?
**A.** Its value is 0.40.

**Q.** And the “Fold change in IC50 (ρ)” value ([2]; mutation E157Q/R263K)?
**A.** The value was 19.90.

**Q.** And the “Fold change in IC50 (ρ)” value ([2]; mutation E157Q)?
**A.** Its value is 0.01.

**Q.** What about the “Fold change in IC50 (ρ)” value ([2]; mutation G140S/Q148R) of the same compound?
**A.** Its value is 7.98.

**Q.** What about the “Fractional change in slope (σ)” value ([2]; mutation G140S/Q148R) of the same compound?
**A.** Its value is 0.01.

**Q.** And the “Fold change in IC50 (ρ)” value ([2]; mutation G140S)?
**A.** Its value is 0.76.

**Q.** And the “Fractional change in slope (σ)” value ([2]; mutation G140S)?
**A.** The value was -0.01.

**Q.** What about the “Fold change in IC50 (ρ)” value ([2]; mutation H51Y/R263K) of the same compound?
**A.** Its value is 6.95.

**Q.** And the “Fold change in IC50 (ρ)” value ([2]; mutation H51Y)?
**A.** The value was 1.25.

**Q.** And the “Fold change in IC50 (ρ)” value ([2]; mutation M50I/R263K)?
**A.** The value was 15.59.

**Q.** And the “Fold change in IC50 (ρ)” value ([2]; mutation M50I)?
**A.** Its value is 1.94.

**Q.** And the “Fold change in IC50 (ρ)” value ([2]; mutation N155H)?
**A.** Its value is 1.96.

**Q.** What about the “Fold change in IC50 (ρ)” value ([2]; mutation Q148K) of the same compound?
**A.** The value was 1.10.

**Q.** What about the “Fold change in IC50 (ρ)” value ([2]; mutation Q148R/N155H) of the same compound?
**A.** Its value is 10.00.

**Q.** And the “Fold change in IC50 (ρ)” value ([2]; mutation Q148R)?
**A.** The value was 1.20.

**Q.** And the “Fold change in IC50 (ρ)” value ([2]; mutation R263K)?
**A.** Its value is 2.00.

**Q.** And the “stability in SGF” value [3]?
**A.** Its value is “stable”.
